Measurements as given in the METLIN SMRT retention time set (Domingo-Almenara et al. 2019).

Assay: gradient 5% acetonitrile 3 min, to 50% in 2 min, to 85% in 15 min, held 3 min, 100 µL/min
Settings: column: Zorbax Extend-C18 2.1 x 50 mm; eluents: water / acetonitrile, 0.1% formic acid
Summary of the method: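 Using water and acetonitrile that each contained 0.1% formic acid, mixtures of ~100 pure standards were separated at 100 μL/min on a Zorbax Extend-C18 column (2.1 × 50 mm, 1.8 μm). The HPLC fed a quadrupole time-of-flight mass spectrometer working in positive and negative ionization mode, with dead and dwell volumes of 40 μL and 900 μL. Data were acquired over 3 months. Retention time was read from computationally picked adduct peaks after manual inspection of each.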

SMILES | RP-LC retention time
C[C@H]1C/C=C/[C@H]2[C@@H]3O[C@]3(C)[C@@H](C)[C@H]3[C@H](Cc4ccccc4)NC(=O)[C@]32OC(=O)O/C=C/[C@](C)(O)C1=O | 870 s
Cn1c(=O)c2nc(S(=O)(=O)CCC(=O)Nc3ccc(F)c(F)c3)n(C)c2n(C)c1=O | 758 s
O=C(Nc1c(F)c(F)c(F)c(F)c1F)c1cc2sccc2n1Cc1ccc(F)cc1 | 1180 s
COc1ccccc1-c1nnc2sc(-c3cc(C)on3)nn12 | 823 s
Cc1nn(C)c2c(N3CCC(C(=O)N4CCN(CC(=O)N5CCOCC5)CC4)CC3)nccc12 | 560 s
O=C(NCc1cc(F)cc(F)c1)c1ccc(-c2cccs2)nc1 | 925 s
CC(C)n1cc(CN2CCC3(CC2)CN(Cc2ccccc2)CC3CO)cn1 (stereo not drawn) | 524 s
Cc1ccc(Sc2ccc(N3CCC(C(=O)N4CCN(c5ccccn5)CC4)CC3)nn2)cc1 | 646 s
CCn1nnc(NCc2ccc(-c3ccc(Cl)cc3Cl)o2)n1 | 1130 s
COc1ccccc1CNC(=O)CN1CCc2[nH]c3c(C)c(Cl)ccc3c(=O)c2C1 | 649 s
Cc1ccc(N2C=C(C(=O)N3CCCC3)S(=O)(=O)c3ccccc32)cc1F | 813 s
COC(=O)c1c(C(=O)OC)c2c3ccccc3ccn2c1C(=O)OC | 916 s
CC1(C)CC2CC(C)(CN2c2nc(-c3ccc([N+](=O)[O-])cc3)nc3ccccc23)C1 (stereo not drawn) | 1050 s
Cc1cccc(NC(=O)Cn2nnc(-c3ccccc3)n2)c1C | 588 s
Cc1cc(NC(=O)CN(C)CCC#N)nc2c1c(=O)oc1ccccc12 | 694 s
CN(CCNC(=O)c1c2c(cn(-c3ccccc3)c1=O)C(=O)CC(C)(C)C2)C1CCCCC1 | 720 s
Cc1cc(-c2nnc(-c3ccc(F)cc3)o2)c(C)n1CC(=O)NCc1ccccn1 | 673 s

SMILES | RP-LC retention time
O=S(=O)(c1ccc(-c2nnc(C3CCCC3)o2)o1)N1CCN(C2CCCCC2)CC1 | 696 s
CCCNC(=O)C1CCN(c2ccc(SCC(=O)Nc3cc(OC)cc(OC)c3)nn2)CC1 | 653 s
Cc1ccc(C)c(NC(=O)N2CCN(CCn3c(-c4ccncc4)nc4cccnc43)CC2)c1 | 608 s
O=C(Nc1ccc2nncn2c1)c1cccc(Cl)c1 | 719 s
Cn1cc(C2c3nccn3CCCN2C(=O)c2cccn2C)cn1 (stereo not drawn) | 564 s
CCOc1cccc(CNC(=O)c2cn3ccc(C)cc3n2)c1 | 671 s
Cc1c(Cl)cccc1S(=O)(=O)Nc1ccccc1N1CCNC(=O)C1 | 738 s
COCCCNC(=O)CN1C(=O)C2CCCCN2c2ccc(C(=O)N3CCCCC3)cc21 (stereo not drawn) | 729 s
Cc1ccc(C(=O)N2C[C@@H]3C[C@H](NC(=O)c4cccnc4)[C@H]2C3)cc1F | 609 s
CCCNC(=O)c1sc(Nc2ccc(Br)cn2)nc1C | 802 s
O=C(CCSc1ccc(F)cc1)Nc1nnc(-c2ccco2)o1 | 729 s
O=C(CSc1nnc(-c2csc3c2CCCC3)o1)Nc1ccccc1 | 769 s
O=C(c1c(F)cccc1Cl)N1CCc2nc(-c3ccc(Cl)cc3)ncc2C1 | 1160 s
Cc1oc(-c2[nH]ncc2C(=O)N2CCOCC2)cc1S(=O)(=O)N1CCCC1 | 616 s
CCCn1c(=O)sc2cc(S(=O)(=O)N3CCC(C(=O)N4CCCCC4)CC3)ccc21 | 876 s
COc1ccc(NC2CC(=O)N(c3ccccc3Cl)C2=O)cc1 (stereo not drawn) | 627 s
